According to PubChem BioAssay AID248 (DTP/NCI, 2004):
Where “and” joins values, the source holds several entries; their conditions need not be identical. Identical values can stand only once. Toxic doses and inconclusive results are not listed. No stated cut-off is given here; in the data, active means T/C of 150% or more; inactive means T/C below 125%.

Tested on: L1210 leukemia ip in BDF1 mice, survival T/C
Assay: NCI In Vivo Anticancer Drug Screen. Data for tumor model L1210 Leukemia (intraperitoneal) in B6D2F1 (BDF1) mice
Settings: endpoint: mean survival time, higher = longer survival
Method in brief: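 Tumor cells were implanted, animals were treated, and survival was followed. The result divides the treated measurement by the vehicle-control measurement.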

[1] = dose: 100.0 mg/kg/injection, schedule: Q04DX003 (ip), vehicle: saline
[2] = dose: 200.0 mg/kg/injection, schedule: Q04DX003 (ip), vehicle: saline
[3] = dose: 400.0 mg/kg/injection, schedule: Q04DX003 (ip), vehicle: saline
[4] = dose: 100.0 mg/kg/injection, schedule: Q04DX003 (ip), vehicle: saline with Tween-80
[5] = dose: 100.0 mg/kg/injection, schedule: Q04DX003 (ip), vehicle: Klucel (hydroxypropylcellulose) (HPC)
[6] = dose: 200.0 mg/kg/injection, schedule: Q04DX003 (ip), vehicle: Klucel (hydroxypropylcellulose) (HPC)
[7] = dose: 400.0 mg/kg/injection, schedule: Q04DX003 (ip), vehicle: Klucel (hydroxypropylcellulose) (HPC)
[8] = dose: 100.0 mg/kg/injection, schedule: Q01DX001 (ip), vehicle: carboxymethylcellulose (CMC)
[9] = dose: 200.0 mg/kg/injection, schedule: Q01DX001 (ip), vehicle: carboxymethylcellulose (CMC)
[10] = dose: 400.0 mg/kg/injection, schedule: Q01DX001 (ip), vehicle: carboxymethylcellulose (CMC)
[11] = dose: 100.0 mg/kg/injection, schedule: Q04DX002 (ip), vehicle: saline with Tween-80
[12] = dose: 200.0 mg/kg/injection, schedule: Q04DX002 (ip), vehicle: saline with Tween-80
[13] = dose: 400.0 mg/kg/injection, schedule: Q04DX002 (ip), vehicle: saline with Tween-80
[14] = dose: 100.0 mg/kg/injection, schedule: Q01DX009 (ip), vehicle: saline
[15] = dose: 200.0 mg/kg/injection, schedule: Q01DX009 (ip), vehicle: saline
[16] = dose: 100.0 mg/kg/injection, schedule: Q01DX001 (ip), vehicle: saline
[17] = dose: 200.0 mg/kg/injection, schedule: Q01DX001 (ip), vehicle: saline
[18] = dose: 75.0 mg/kg/injection, schedule: Q01DX001 (ip), vehicle: saline
[19] = dose: 150.0 mg/kg/injection, schedule: Q01DX001 (ip), vehicle: saline

Measured: T/C

CC(O)(CCl)C(=O)O (stereo not drawn)
inactive: [1] 96 % of control | [2] 98 % of control | [3] 96 % of control

CCCCCCCCCCCCCCCCCC[Se][Se]CCCCCCCCCCCCCCCCCC
inactive: dose: 6.25 mg/kg/injection, schedule: Q01DX009 (ip), vehicle: saline with Tween-80 94 % of control | dose: 12.5 mg/kg/injection, schedule: Q01DX009 (ip), vehicle: saline with Tween-80 93 % of control | dose: 25.0 mg/kg/injection, schedule: Q01DX009 (ip), vehicle: saline with Tween-80 98 % of control and 89 % of control | [4] 87 % of control | dose: 400.0 mg/kg/injection, schedule: Q04DX003 (ip), vehicle: saline with Tween-80 86 % of control

CCCCCCC(=O)/C=C/c1ccc(Cl)cc1Cl
inactive: dose: 100.0 mg/kg/injection, schedule: Q01DX009 (ip), vehicle: acetone 95 % of control | dose: 100.0 mg/kg/injection, schedule: Q04DX003 (ip), vehicle: acetone 86 % of control | dose: 200.0 mg/kg/injection, schedule: Q01DX009 (ip), vehicle: acetone 90 % of control | dose: 200.0 mg/kg/injection, schedule: Q04DX003 (ip), vehicle: acetone 91 % of control | dose: 400.0 mg/kg/injection, schedule: Q01DX009 (ip), vehicle: acetone 95 % of control | dose: 400.0 mg/kg/injection, schedule: Q04DX003 (ip), vehicle: acetone 93 % of control

COc1ccc(C(=O)N/N=C/c2ccc(Cl)cc2Cl)cc1
inactive: dose: 100.0 mg/kg/injection, schedule: Q01DX009 (ip), vehicle: Klucel (hydroxypropylcellulose) (HPC) 102 % of control | dose: 200.0 mg/kg/injection, schedule: Q01DX009 (ip), vehicle: Klucel (hydroxypropylcellulose) (HPC) 94 % of control | dose: 400.0 mg/kg/injection, schedule: Q01DX009 (ip), vehicle: Klucel (hydroxypropylcellulose) (HPC) 91 % of control

CON(C)S(=O)c1ccc([N+](=O)[O-])cc1 (stereo not drawn)
inactive: [5] 100 % of control | [6] 97 % of control | [7] 94 % of control

O=[N+]([O-])c1cccc2c1C1c3ccccc3C2c2ccccc21
inactive: dose: 50.0 mg/kg/injection, schedule: Q01DX001 (ip), vehicle: carboxymethylcellulose (CMC) 93 % of control | [8] 93 % of control | [9] 96 % of control | [10] 96 % of control

O=C(/C=C/c1ccccc1)NC(=S)Nc1cc(C(F)(F)F)ccc1Cl
inactive: dose: 100.0 mg/kg/injection, schedule: Q01DX001 (ip), vehicle: saline with Tween-80 103 % of control | dose: 100.0 mg/kg/injection, schedule: Q01DX009 (ip), vehicle: saline with Tween-80 92 % of control and 86 % of control | [11] 98 % of control and 90 % of control | [4] 100 % of control | dose: 200.0 mg/kg/injection, schedule: Q01DX001 (ip), vehicle: saline with Tween-80 95 % of control | dose: 200.0 mg/kg/injection, schedule: Q01DX009 (ip), vehicle: saline with Tween-80 92 % of control and 90 % of control | [12] 93 % of control and 114 % of control | dose: 200.0 mg/kg/injection, schedule: Q04DX003 (ip), vehicle: saline with Tween-80 94 % of control | dose: 400.0 mg/kg/injection, schedule: Q01DX001 (ip), vehicle: saline with Tween-80 101 % of control | dose: 400.0 mg/kg/injection, schedule: Q01DX009 (ip), vehicle: saline with Tween-80 95 % of control and 89 % of control | [13] 95 % of control and 101 % of control

Cc1cccc(Cl)c1OCC(=O)Nc1ccc(Cl)cc1
inactive: [11] 90 % of control | [12] 93 % of control | [13] 93 % of control

COc1ccc(/C=C(/C(=O)c2ccc(O)cc2)c2ccccc2)cc1
inactive: [8] 87 % of control | [9] 89 % of control | [10] 87 % of control

CN(C)CCNS(C)(=O)=O
inactive: [14] 105 % of control | [1] 98 % of control | [15] 105 % of control | [2] 100 % of control | dose: 400.0 mg/kg/injection, schedule: Q01DX009 (ip), vehicle: saline 109 % of control | [3] 100 % of control

N=C(N)SCC(=O)c1ccc([N+](=O)[O-])cc1
inactive: [11] 88 % of control | [12] 95 % of control

CC1=CC2CCC1C2 (stereo not drawn)
inactive: dose: 75.0 mg/kg/injection, schedule: Q01DX001 (ip), vehicle: acetone 101 % of control | dose: 150.0 mg/kg/injection, schedule: Q01DX001 (ip), vehicle: acetone 95 % of control

COCC1OC1(C(=O)c1ccccc1Cl)c1ccccc1Cl (stereo not drawn)
inactive: [16] 107 % of control | [17] 100 % of control | dose: 400.0 mg/kg/injection, schedule: Q01DX001 (ip), vehicle: saline 96 % of control

Cc1cc(Cl)c([N+](=O)[O-])c(P(=O)(O)O)c1
inactive: [18] 90 % of control | [19] 90 % of control | dose: 300.0 mg/kg/injection, schedule: Q01DX001 (ip), vehicle: saline 96 % of control

Nc1ncnc2nc(N=Nc3ccc(C(=O)O)c(O)c3)[nH]c12
inactive: [5] 96 % of control | [6] 105 % of control | [7] 102 % of control

CC(C)CC(N)C(=O)NCCCCCCNCCCCCCNC(=O)C(N)CC(C)C (stereo not drawn)
inactive: dose: 50.0 mg/kg/injection, schedule: Q01DX001 (ip), vehicle: saline 103 % of control | [16] 105 % of control | [17] 102 % of control

N=Nc1c2ccccc2c2nc3c(N)[nH]nc(N)c3nc12
inactive: dose: 100.0 mg/kg/injection, schedule: Q04DX002 (ip), vehicle: Klucel (hydroxypropylcellulose) (HPC) 107 % of control | dose: 200.0 mg/kg/injection, schedule: Q04DX002 (ip), vehicle: Klucel (hydroxypropylcellulose) (HPC) 103 % of control | dose: 400.0 mg/kg/injection, schedule: Q04DX002 (ip), vehicle: Klucel (hydroxypropylcellulose) (HPC) 100 % of control

CN(C)C(=O)Sc1ccc(C(=O)O)cc1
inactive: dose: 100.0 mg/kg/injection, schedule: Q04DX003 (ip), vehicle: gum acacia 109 % of control | dose: 200.0 mg/kg/injection, schedule: Q04DX003 (ip), vehicle: gum acacia 98 % of control | dose: 400.0 mg/kg/injection, schedule: Q04DX003 (ip), vehicle: gum acacia 113 % of control

N=c1ccc2ccccc2n1O
inactive: dose: 6.25 mg/kg/injection, schedule: Q04DX003 (ip), vehicle: other 97 % of control | dose: 12.5 mg/kg/injection, schedule: Q04DX003 (ip), vehicle: other 95 % of control | dose: 25.0 mg/kg/injection, schedule: Q04DX003 (ip), vehicle: other 100 % of control

O=C(Nc1ccc(NS(=O)(=O)c2ccccc2)cc1Cl)c1ccccc1
inactive: dose: 50.0 mg/kg/injection, schedule: Q01DX001 (ip), vehicle: Klucel (hydroxypropylcellulose) (HPC) 104 % of control | dose: 100.0 mg/kg/injection, schedule: Q01DX001 (ip), vehicle: Klucel (hydroxypropylcellulose) (HPC) 108 % of control | dose: 200.0 mg/kg/injection, schedule: Q01DX001 (ip), vehicle: Klucel (hydroxypropylcellulose) (HPC) 90 % of control

CC(C)N(CCN)C(C)C
inactive: dose: 50.0 mg/kg/injection, schedule: Q01DX009 (ip), vehicle: saline 94 % of control | [14] 103 % of control | [1] 95 % of control | [15] 103 % of control | [2] 97 % of control

CN(C)CCCn1nc(-c2ccccc2)oc1=O
inactive: [18] 96 % of control | [19] 87 % of control

Nc1ncnc(N)c1NC(=O)c1cccc(Br)c1
inactive: dose: 6.25 mg/kg/injection, schedule: Q04DX003 (ip), vehicle: saline with Tween-80 96 % of control | dose: 12.5 mg/kg/injection, schedule: Q04DX003 (ip), vehicle: saline with Tween-80 96 % of control | dose: 25.0 mg/kg/injection, schedule: Q04DX003 (ip), vehicle: saline with Tween-80 100 % of control and 103 % of control

CCn1ncc2ccccc2c1=O
inactive: [16] 96 % of control | [17] 97 % of control

CC1(C)OC2C(CNCCO)OC(OCc3ccccc3)C2O1 (stereo not drawn)
inactive: dose: 50.0 mg/kg/injection, schedule: Q04DX003 (ip), vehicle: saline 102 % of control | [1] 94 % of control | [2] 88 % of control

O=C(/C=C/C=[N+](/[O-])O)c1cncc(F)c1
inactive: dose: 100.0 mg/kg/injection, schedule: Q04DX002 (ip), vehicle: saline 93 % of control | dose: 200.0 mg/kg/injection, schedule: Q04DX002 (ip), vehicle: saline 101 % of control | dose: 400.0 mg/kg/injection, schedule: Q04DX002 (ip), vehicle: saline 93 % of control
